In US20230013824A1, “COMPOSITIONS FOR THE TREATMENT OF HYPERKERATOSIS DISORDERS” (Azura Ophthalmics Ltd., priority 2016, published 2023):

Columns and labels:
HaCaT cells = experiment: MTT cell viability assay, dose response and time course; format: cell-based, human; conditions: for reduction of keratinocyte turnover or proliferation rate as determined by MTT cell viability tests: 72 hours
Procedure: Cell viability was measured by MTT assay.
Untreated cells were used as negative controls. […] A proper blank control was subtracted from the measurements.
The assay was carried out in triplicate. Untreated cells were used as negative controls.

HaCaT keratinocyte cells [1] = experiment: Caspase-3 apoptosis assay; format: cell-based, human; conditions: HaCaT keratinocytes cell line, 72 hours
Procedure: Apoptosis was measured by the caspase-3 assay. Results are shown as percent of control. Staurosporine (100 nM) served as positive control. Mean±SEM; n=3. *p<0.05 for reduction from untreated control. HaCaT cells were seeded in a 96 well plates in concentration of 0.3×10^6 cells/mL in […] in complete growth medium (DMEM supplemented with 10% FBS and antibiotics). […] The assay was carried out in triplicates. Untreated cells were used as negative controls. At the end of each incubation period, cell viability and the extent of apoptosis were measured by MTT and Caspase-3 assays, respectively. A proper blank control was subtracted from the measurements.

HaCaT keratinocyte cells [2] = experiment: BrdU ELISA assay of turnover rate (DNA replication); format: cell-based, human; conditions: 48 hr incubation
Procedure: Turnover rate was measured by BrdU. […] Staurosporine served as positive control. Mean±SEM; n=3. *p<0.05 for reduction from untreated control.
HaCaT cells were incubated without or with the indicated concentrations of selenium cysteine for 48 hr. Turnover rate was measured by BrdU. […] Mean±SEM; n=3. *p<0.05 for reduction from untreated control.
To further investigate the impact of selenium methionine on the cells, the DNA replication rate of the cells was monitored by the BrdU assay. […] The assay was carried out in triplicate.
The BrdU ELISA assay was performed according to kit manufacturer instructions. Briefly, during the final 16 hours of culture, BrdU was added to each well. The cells were fixed, permeabilized, and DNA denatured by the addition of buffers. BrdU monoclonal antibody was pipetted into the wells and allowed to bind for one hour. Colorimetric evaluation of the turnover rate was recorded by ELISA reader. The BrdU assay captures a 16 hr window, which gives a wide view on the proliferation rate of the cells.
To further investigate the impact of selenium cysteine on the cells, the DNA replication rate of the cells was monitored by a BrdU incorporation assay. The purpose was to determine the ability of selenium cysteine at selected concentrations and times to reduce HaCaT keratinocytes cells turnover rate. The assay was carried out in triplicates. The positive control was stautosporine (100 nM). The cells were seeded in 6- or 96-well plates in complete growth medium at 37° C. with 5% CO2 under humidified atmosphere. The cells were incubated with or without selenium cysteine for the selected time points and concentrations determined in Example 6. BrdU incorporation was performed at the selected concentration and a 48 hr time point was chosen for the BrdU assay.

HaCaT keratinocyte cells [3] = experiment: Cell cycle analysis by flow cytometry (FACS); format: cell-based, human; conditions: HaCaT cells synchronized by serum deprivation, 24 hr incubation
Procedure: HaCaT keratinocyte cells were synchronized by serum deprivation for 24 hr. […] Cell cycle was measured by FACS analysis. […] Staurosporine (100 nM) served as positive control. Mean±SEM; n=3. *p<0.05 for reduction from untreated control.
BrdU and FACS analyses were performed in one selected concentration. Two time points (24 hr and 48 hr) were chosen for the flow cytometry and one for the BrdU assay. In order to induce culture synchronization, serum-free medium was used prior of BrdU/FACS analyses in the 24 hr treatment groups.
The effect of selenium methionine on cell cycle was analyzed by flow cytometry (FACS). At the end of the treatment, the cells were harvested by trypsinization and counted. Approximately 1.3×10^6 cells were transferred to a new tube, centrifuged for 5 min at 1500 rpm (2-8° C.), and suspended in 0.5 ml of ice cold PBS. Then, the cells were fixed by adding 2.5 ml of 70% ethanol (2-8° C.) in a dropwise manner. The cells were stored at 2-8° C. for 48 hr at this stage. After 30 min of incubation, the samples were washed 3×1 mL PBS and 0.5 mL of ribonuclease stock solution (0.2 mg/mL supplemented with 0.1% (v/v) Triton x-100 in PBS) were added to the cell pellet for 1 hr at rt. This step was performed to ensure only DNA, not RNA, was stained. 0.5 mL of propidium iodide (PI, 100 μg/ml) was added to the samples still suspended in the ribonuclease stock solution. […]

Human stratum corneum = experiment: Thiol degradation assay ex vivo in human skin tissue; conditions: 2 hr
Procedure: Then, the mixtures were analyzed for free thiol moieties concentration.
The skin was cleaned, washed with PBS, and then the epidermis was peeled. The epidermis was incubated with 100 mL of 0.005% trypsin (in PBS) at 37° C. overnight. The stratum corneum was washed with HPLC grade water and transferred to a clean Eppendorf tube. The water was evaporated by SpeedVac and the stratum corneum was washed once again with ice cold hexane to exclude residuals lipids in the fraction. The solvent was removed by SpeedVac.
The stratum corneum pieces were weighed in order to determine their dry weight. 50 mg of dried stratum corneum was dissolved in 1M NaOH and mixed thoroughly for 1 hr. Stratum corneum was treated with or without the test items for 2 hr. L-acetylcysteine containing free thiol moieties served as positive control. To isolate the free thiol moieties from the mixture, the samples or blank (50 μl) were incubated with equal volume of TCA (trichloroacetic acid) for 5 min. Then, the tubes were centrifuge for 15 min at 10,000 rpm at room temperature. The pellet was evaluated. Ellman's reagent stock solution (3 mM) was prepared in methanol. […] The 96-well plates were incubated for 5 min at RT, mixed, and the optical absorbance was recorded at 412 nm. A standard calibration curve was read simultaneously without the TCA precipitation step.

Compound | reduction of keratinocyte turnover or proliferation rate as determined by MTT cell viability tests (HaCaT cells) | activation of caspase-3 apoptosis marker (apoptotic effect) (HaCaT keratinocyte cells [1]) | effect on proliferation of the cells (DNA replication, BrdU) (HaCaT keratinocyte cells [2]) | effect on cell cycle (cell arrest properties) (HaCaT keratinocyte cells [3]) | elevation in thiol degradation assay releasing free SH moieties (Human stratum corneum) | cell viability (MTT) (HaCaT cells; positive control 0.1%) | reduction of proliferation of keratocytes (BrdU, DNA replication) (HaCaT keratinocyte cells [2])
O=C(O)c1ccccc1O [SA, Salicylic acid] | no dose dependent effect | significant increase | does not affect the proliferation | no cell arrest properties | caused elevation | – | –
CCCCCCCCCCCCOS(=O)(=O)[O-].[Na+] [SDS] | – | – | – | – | – | significantly decreased cell viability | –
CN[C@@H]1C[C@H]2O[C@@](C)([C@@H]1OC)n1c3ccccc3c3c4c(c5c6ccccc6n2c5c31)C(=O)NC4 [staurosporine] | – | – | dose-dependent reduction | – | – | – | –
selenium cysteine | significant dose-dependent effect | – | – | – | – | – | more than 90%
selenium methionine | significant dose-dependent effect | significant increase | – | elongation of the S phase in the cell cycle and lowered M phase | up to 35% | – | up to 60%
